From patent US20030050470A1, “Biomarkers and targets for diagnosis, prognosis and management of prostate disease, bladder and breast cancer” (UroCor, Inc., priority 1996, published 2003)
Where two headings read alike, the source gives them in different places.

How the values were obtained:
[1] = tested on: B 16 melanoma cell line; conditions: B 16 melanoma cell line (Rieber & Rieber, 1994); cited from earlier work
[2] = tested on: UC 28 gene message in LnCaP cells; conditions: charcoal stripped serum 48 hours, DHT 0, 0.1, 1, 10 and 100 nM for 24 hours, normalized to β-actin
Method: FIG. 17. […] LnCaP cells were cultured in RPMI-1640 with 10% charcoal stripped serum for 48 hours prior to treatment. The cells were incubated in DHT for 24 hours. […] RT-PCR message was normalized to β-actin.
Since hormones regulate both prostate and mammary glands, the possibility that expression of this gene is modified by androgen was examined.

[3] = tested on: PSMA messenger RNA in LNCAP prostate cancer cell line; conditions: LNCAP cells after exposure (Israeli et al., 1994); cited from earlier work
[4] = tested on: cyclin A in DU-145 prostate carcinoma cell line; conditions: DU-145 cells (Qiao et al., 1994); cited from earlier work

N[C@@H](Cc1ccc(O)cc1)C(=O)O [L-tyrosine]
cyclin A activity [1]: decrease in cyclin A activity
melanogenesis and replicative senescence [1]: promote increased melanogenesis and replicative senescence

C[C@]12CCC(=O)C[C@@H]1CC[C@@H]1[C@@H]2CC[C@]2(C)[C@@H](O)CC[C@@H]12 [DHT, dihydrotestosterone]
UC 28 gene expression (UC 28 message level by RT-PCR) [2]: increasing UC 28 message level
UC 28 gene expression (UC 28 message level by RT-PCR) ([2]; listed as dihydrotestosterone): stimulated by dihydrotestosterone (DHT) in a time and dosage-dependent manner
PSMA mRNA down-regulation [3]: 8-10 fold

Cc1ccc(C(=O)Nc2ccc(S(=O)(=O)O)c3cc(S(=O)(=O)O)cc(S(=O)(=O)O)c23)cc1NC(=O)c1cccc(NC(=O)Nc2cccc(C(=O)Nc3cc(C(=O)Nc4ccc(S(=O)(=O)O)c5cc(S(=O)(=O)O)cc(S(=O)(=O)O)c45)ccc3C)c2)c1 [Suramin]
expression of cyclin A [4]: reduces the expression of cyclin A
